The results in this text go back to US9975878B2, “Substituted triazine BMI-1 inhibitors” (PTC Therapeutics, Inc., priority 2013, dated 2018).

The assay relates to Bmi-1 protein. The assay can be described thus: Sandwich ELISA Assay: Bmi-1 protein level in HT-1080 cells treated with test compounds. It counts as cell-based. The gist of the method: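 HT-1080 cells exposed to compounds (final DMSO 0.5%) for 40-48 h at 37° C, 5% CO2, then lysed. Bmi-1 quantified by sandwich ELISA (mouse anti-Bmi-1 capture, rabbit anti-Bmi-1 detection, HRP anti-rabbit, TMB), read at OD450 with OD570 reference, against recombinant GST-Bmi-1 standard curve (0-8000 pg/mL).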
(In general: ELISA stands for enzyme-linked immunosorbent assay.)
Usually EC50 stands for the concentration giving half of the maximal effect. Lower therefore signals higher potency in that assay. The compound `Cc1nc2cc(F)c(F)cc2n1-c1nc(N)nc(Nc2ccc(OC(F)F)c(F)c2)n1` [Cpd 10, N-[4-(difluoromethoxy)-3-fluorophenyl]-6-(5,6-difluoro-2-methyl-1H-benzimidazol-1-yl)-1,3,5-triazine-2,4-diamine] gave an EC50 of 100 to 3000 nM.
Consider `CCc1nc2ccc(F)cc2n1-c1nc(N)nc(Nc2ccc(C(F)(F)F)cc2)n1` [Cpd 55, 6-(2-ethyl-6-fluoro-1H-benzimidazol-1-yl)-N-[4-(trifluoromethyl)phenyl]-1,3,5-triazine-2,4-diamine], for which the EC50 lay within 10 to 100 nM.
The result for `Cc1nc2ccccc2n1-c1nc(N)nc(Nc2ccc(C(C)C)cc2)n1` [Cpd 167, 6-(2-methyl-1H-benzimidazol-1-yl)-N-[4-(propan-2-yl)phenyl]-1,3,5-triazine-2,4-diamine] reads 100 to 3000 nM; that for `Nc1nc(Nc2ccc(OC(F)F)cc2)nc(-n2c(C3CC3)nc3c(F)cccc32)n1` [Cpd 86, 6-(2-cyclopropyl-4-fluoro-1H-benzimidazol-1-yl)-N-[4-(difluoromethoxy)phenyl]-1,3,5-triazine-2,4-diamine], 10 to 100 nM.
As to `COc1cccc(Nc2nc(N)nc(-n3c(C4CC4)nc4ccccc43)n2)c1` [Cpd 154, 6-(2-cyclopropyl-1H-benzimidazol-1-yl)-N-(3-methoxyphenyl)-1,3,5-triazine-2,4-diamine], the half-maximal effective concentration (EC50) fell in the range of 100 to 3000 nM.
Turning to `Cc1nc2ccccc2n1-c1nc(N)nc(Nc2ccc(Br)cc2)n1` [Cpd 206, N-(4-bromophenyl)-6-(2-methyl-1H-benzimidazol-1-yl)-1,3,5-triazine-2,4-diamine], the EC50 lay in the range of 1 to 10 nM.
The result for `CCc1nc2c(F)cc(F)cc2n1-c1nc(N)nc(Nc2ccc(Cl)cc2)n1` [Cpd 190, N-(4-chlorophenyl)-6-(2-ethyl-4,6-difluoro-1H-benzimidazol-1-yl)-1,3,5-triazine-2,4-diamine] reads 10 to 100 nM.
For `Cc1nc2ccccc2n1-c1nc(N)nc(Nc2ccc(C#N)cc2)n1` [Cpd 151, 4-{[4-amino-6-(2-methyl-1H-benzimidazol-1-yl)-1,3,5-triazin-2-yl]amino}benzonitrile] the value was 100 to 3000 nM; for `CCc1nc2ncc(F)cc2n1-c1nc(N)nc(Nc2ccc(OC(F)F)cc2)n1` [Cpd 79, N-[4-(difluoromethoxy)phenyl]-6-(2-ethyl-6-fluoro-1H-imidazo[4,5-b]pyridin-1-yl)-1,3,5-triazine-2,4-diamine], 10 to 100 nM.
The result for `Cc1nc2ccccc2n1-c1nc(N)nc(Nc2ccc(OC(F)F)cc2)n1` [Cpd 4, N-[4-(difluoromethoxy)phenyl]-6-(2-methyl-1H-benzimidazol-1-yl)-1,3,5-triazine-2,4-diamine] reads 10 to 100 nM.
Compound `Fc1ccc2nc(C3CC3)n(-c3cnnc(Nc4ccc(C(F)(F)F)cc4)n3)c2c1` [Cpd 134, 5-(2-cyclopropyl-6-fluoro-1H-benzimidazol-1-yl)-N-[4-(trifluoromethyl)phenyl]-1,2,4-triazin-3-amine] returned an EC50 of 100 to 3000 nM.
For `Cc1ccc(Nc2nc(N)nc(-n3c(C4CC4)nc4c(F)cccc43)n2)cc1` [Cpd 183, 6-(2-cyclopropyl-4-fluoro-1H-benzimidazol-1-yl)-N-(4-methylphenyl)-1,3,5-triazine-2,4-diamine] the value was 10 to 100 nM.
In turn, `Nc1nc(Nc2ccc(OC(F)F)c(F)c2)nc(-n2c(C(F)F)nc3cc(F)c(F)cc32)n1` [Cpd 117, N-[4-(difluoromethoxy)-3-fluorophenyl]-6-[2-(difluoromethyl)-5,6-difluoro-1H-benzimidazol-1-yl]-1,3,5-triazine-2,4-diamine] returned an EC50 of 100 to 3000 nM.
With `Cc1nc2ccccc2n1-c1nc(N)nc(Nc2cc3ccccc3cn2)n1` [Cpd 22, N-(isoquinolin-3-yl)-6-(2-methyl-1H-benzimidazol-1-yl)-1,3,5-triazine-2,4-diamine], the EC50 lay in the range of 10 to 100 nM.
`Cc1nc2ccccc2n1-c1nc(N)nc(Nc2ccc(C(F)(F)F)nc2)n1` [Cpd 51, 6-(2-methyl-1H-benzimidazol-1-yl)-N-[6-(trifluoromethyl)pyridin-3-yl]-1,3,5-triazine-2,4-diamine] yielded a 50% effective concentration (EC50) of 10 to 100 nM.
The result for `COc1ccc(Nc2nc(N)nc(-n3c(C)nc4ccc(F)cc43)n2)cc1` [Cpd 164, 6-(6-fluoro-2-methyl-1H-benzimidazol-1-yl)-N-(4-methoxyphenyl)-1,3,5-triazine-2,4-diamine] reads 1 to 10 nM; that for `FC(F)Oc1ccc(Nc2cnnc(-n3c(C4CC4)nc4ccccc43)n2)cc1` [Cpd 113, 3-(2-cyclopropyl-1H-benzimidazol-1-yl)-N-[4-(difluoromethoxy)phenyl]-1,2,4-triazin-5-amine], 10 to 100 nM.
The result for `Cc1nc2ccc(F)cc2n1-c1nc(N)nc(Nc2ccc(OC(F)F)cc2)n1` [Cpd 28, N-[4-(difluoromethoxy)phenyl]-6-(6-fluoro-2-methyl-1H-benzimidazol-1-yl)-1,3,5-triazine-2,4-diamine] reads 10 to 100 nM; that for `Cc1nc2ncc(Cl)cc2n1-c1nc(N)nc(Nc2ccc(C(F)(F)F)cc2)n1` [Cpd 33, 6-(6-chloro-2-methyl-1H-imidazo[4,5-b]pyridin-1-yl)-N-[4-(trifluoromethyl)phenyl]-1,3,5-triazine-2,4-diamine], 10 to 100 nM.
The result for `Cc1nc2ncc(Br)cc2n1-c1nc(N)nc(Nc2ccc(C(F)(F)F)cc2)n1` [Cpd 32, 6-(6-bromo-2-methyl-1H-imidazo[4,5-b]pyridin-1-yl)-N-[4-(trifluoromethyl)phenyl]-1,3,5-triazine-2,4-diamine] reads 10 to 100 nM.
Turning to `Cc1nc2ccccc2n1-c1nncc(Nc2ccc(OC(F)F)cc2)n1` [Cpd 99, N-[4-(difluoromethoxy)phenyl]-3-(2-methyl-1H-benzimidazol-1-yl)-1,2,4-triazin-5-amine], the EC50 was in the range of 10 to 100 nM.
The result for `COc1ccc(Nc2nc(N)nc(-n3c(C)nc4c(F)cccc43)n2)cc1` [Cpd 179, 6-(4-fluoro-2-methyl-1H-benzimidazol-1-yl)-N-(4-methoxyphenyl)-1,3,5-triazine-2,4-diamine] reads 1 to 10 nM; that for `CCc1nc2ccc(F)cc2n1-c1cnnc(Nc2ccc(C(F)(F)F)cc2)n1` [Cpd 125, 5-(2-ethyl-6-fluoro-1H-benzimidazol-1-yl)-N-[4-(trifluoromethyl)phenyl]-1,2,4-triazin-3-amine], 100 to 3000 nM; that for `CCc1nc2ccccc2n1-c1nc(Nc2ccc(OC(F)F)cc2)c[n+]([O-])n1` [Cpd 140, N-[4-(difluoromethoxy)phenyl]-3-(2-ethyl-1H-benzimidazol-1-yl)-1,2,4-triazin-5-amine 1-oxide], 100 to 3000 nM.
The result for `Cc1nc2ccc(F)cc2n1-c1nncc(Nc2ccc(C(F)(F)F)cc2)n1` [Cpd 130, 3-(6-fluoro-2-methyl-1H-benzimidazol-1-yl)-N-[4-(trifluoromethyl)phenyl]-1,2,4-triazin-5-amine] reads 100 to 3000 nM; that for `Cc1nc2ncc(Cl)cc2n1-c1nc(N)nc(Nc2ccc(OC(F)F)cc2)n1` [Cpd 40, 6-(6-chloro-2-methyl-1H-imidazo[4,5-b]pyridin-1-yl)-N-[4-(difluoromethoxy)phenyl]-1,3,5-triazine-2,4-diamine], 10 to 100 nM; that for `CCc1nc2ccccc2n1-c1nc(N)nc(Nc2ccc(OC(F)F)cc2)n1` [Cpd 31, N-[4-(difluoromethoxy)phenyl]-6-(2-ethyl-1H-benzimidazol-1-yl)-1,3,5-triazine-2,4-diamine], 10 to 100 nM.
Consider `CCc1nc2ccc(F)cc2n1-c1nncc(Nc2ccc(C(F)(F)F)cc2)n1` [Cpd 131, 3-(2-ethyl-6-fluoro-1H-benzimidazol-1-yl)-N-[4-(trifluoromethyl)phenyl]-1,2,4-triazin-5-amine], for which the EC50 lay within 100 to 3000 nM.
The compound `COc1ccc(Nc2nc(N)nc(-n3c(C)nc4c(F)cc(F)cc43)n2)cc1` [Cpd 185, 6-(4,6-difluoro-2-methyl-1H-benzimidazol-1-yl)-N-(4-methoxyphenyl)-1,3,5-triazine-2,4-diamine] had an EC50 of 1 to 10 nM.
For the compound `N#CCc1nc2ccccc2n1-c1nc(N)nc(Nc2ccc(OC(F)F)c(F)c2)n1` [Cpd 122, [1-(4-amino-6-{[4-(difluoromethoxy)-3-fluorophenyl]amino}-1,3,5-triazin-2-yl)-1H-benzimidazol-2-yl]acetonitrile], the EC50 was 100 to 3000 nM.
For `Cc1nc2ccccc2n1-c1nc(N)nc(Nc2ccc(Cl)cc2)n1` [Cpd 150, N-(4-chlorophenyl)-6-(2-methyl-1H-benzimidazol-1-yl)-1,3,5-triazine-2,4-diamine], the EC50 fell in the range of 10 to 100 nM.
`CCc1nc2ccc(F)cc2n1-c1nc(N)nc(Nc2ccc(OC(F)F)c(F)c2)n1` [Cpd 57, N-[4-(difluoromethoxy)-3-fluorophenyl]-6-(2-ethyl-6-fluoro-1H-benzimidazol-1-yl)-1,3,5-triazine-2,4-diamine] came in with an EC50 of 10 to 100 nM.
The result for `COc1ccc(Nc2nc(N)nc(-c3c(C(F)(F)F)nc4ccccn34)n2)cc1F` [Cpd 1, N-(3-fluoro-4-methoxyphenyl)-6-[2-(trifluoromethyl)imidazo[1,2-a]pyridin-3-yl]-1,3,5-triazine-2,4-diamine] reads 1 to 10 nM.
For `CCc1nc2ccccc2n1-c1nc(Nc2ccc(C(F)(F)F)cc2)c[n+]([O-])n1` [Cpd 139, 3-(2-ethyl-1H-benzimidazol-1-yl)-N-[4-(trifluoromethyl)phenyl]-1,2,4-triazin-5-amine 1-oxide] the value was 10 to 100 nM; for `Cc1nc2ncc(Cl)cc2n1-c1nc(N)nc(Nc2ccc(OC(F)F)c(F)c2)n1` [Cpd 41, 6-(6-chloro-2-methyl-1H-imidazo[4,5-b]pyridin-1-yl)-N-[4-(difluoromethoxy)-3-fluorophenyl]-1,3,5-triazine-2,4-diamine], 10 to 100 nM.
In the case of `Cc1nc2cc(F)c(F)cc2n1-c1nc(N)nc(Nc2ccc(OC(F)F)cc2)n1` [Cpd 11, N-[4-(difluoromethoxy)phenyl]-6-(5,6-difluoro-2-methyl-1H-benzimidazol-1-yl)-1,3,5-triazine-2,4-diamine], the EC50 fell in the range of 10 to 100 nM.
In the case of `CCc1nc2ccccc2n1-c1cnnc(Nc2ccc(OC)cc2)n1` [Cpd 205, 5-(2-ethyl-1H-benzimidazol-1-yl)-N-(4-methoxyphenyl)-1,2,4-triazin-3-amine], the EC50 lay within 1 to 10 nM.
